Measurements reported in PMC3906007, “Discovery of a Small Molecule Agonist of Phosphatidylinositol 3-Kinase p110α That Reactivates Latent HIV-1” (PLoS ONE, 2014).
Read-outs that look alike come from different tables or passages of the source.

Tests used:
[1] = system: latent HIV-1 in U1 cell line; assay: Latent HIV-1 reactivation in U1 cells (quantitative PCR of early and late viral RNA transcripts); format: cell-based
Experimental: Three different cell lines of HIV-1 latency were used in this study. These included J89GFP, U1 and ACH-2 cells. The J89GFP cells were a kind gift from Dr. David Levy. The ACH-2 and U1 cells were obtained through the AIDS Research and Reference Reagent Program, Division of AIDS, NIAID, NIH: Dr. Thomas Folks contributor [19]–[21]. Reactivation of latent HIV-1 in the J89GFP cells was measured by quantifying the percentage of EGFP positive cells using a BD FACScan flow cytometer with BD FACSDiva software (BD Biosciences, CA), as described previously. Reactivation of latent HIV-1 in the ACH-2 and U 1 cells was assessed by quantitative analysis of initiated and elongated HIV-1 transcripts, as described previously. All 3 cell lines were maintained in RMPI 1640 medium supplemented with 10% FBS, 0.3 mg/mL L-glutamine, 100 U/mL penicillin, and 100 µg/mL streptomycin at 37°C in humidified air with 5% CO2.
Figure 2 Latent HIV-1 reactivation activity of 57704, alone and in combination with other inducing agents, in the U1 and ACH2 cell line models of virus latency. HIV-1 expression was assessed by quantitative PCR analysis of early and late viral RNA transcripts. Where appropriate, TNFα was used as an activation control. (A) Latent HIV-1 reactivation of activity 57704 in the J89GFP cell line. […] (B) Latent HIV-1 reactivation activity of 57704 in the ACH2 cell line. (C) Latent HIV-1 reactivation of activity 57704 in the U1 cell line. (D) Graph of activation of latent HIV-1 early and late gene transcript expression in the ACH2 and U1 cell lines. EC50 values were determined in Sigma Plot by nonlinear regression, as described previously. (E) Latent HIV-1 reactivation of 5 µM 57704 in combination with 1 µM prostratin in the U1 cell line. […]. (G) Latent HIV-1 reactivation of 5 µM 57704 in combination with 2.5 µM DSF in the U1 cell line. (H) Latent HIV-1 reactivation of 5 µM 57704 in combination with 20 µM BIX-01294 in the U1 cell line. Data represent the mean ± standard deviation from 3 replicate experiments.

[2] = system: latent HIV-1 in ACH2 and U1 cell lines; assay: Latent HIV-1 reactivation, range across cell lines of virus latency; format: cell-based; settings: Human immunodeficiency virus 1, ACH-2, read-out: EC50, reactivation of latent HIV-1 gene expression
Akt phosphorylation = assay: Western blot analysis of phosphorylated Akt in J89GFP cells; format: cell-based; settings: 5 µM 57704
Experimental: To gain insight into the mechanism by which 57704 reactivates latent HIV-1, we evaluated its activity in combination with inhibitors of different signaling pathways or kinases in J89GFP cells (Fig. 4A, B). […] To determine whether 57704 directly activated the PI3K/Akt signaling pathway, we next assessed the levels of Akt phosphorylation in the J89GFP cells after exposure to 5 µM 57704.

PI3K p110β RNA = format: cell-based; settings: J89GFP cells; 5 µM
PI3K p110γ RNA = assay: PI3K isoform RNA transcript levels in J89GFP cells, p110γ; format: cell-based; settings: 5 µM
PI3K p110α = system: T1, PI3K p110α; assay: PI3K activity assay (PIP3 production, Millipore kit) in combination with wortmannin, p110α; format: biochemical; settings: recombinant purified enzyme; 100 nM wortmannin + 5 µM compound
T1 construct: purchased Millipore (Billerica, MA)
Experimental: The production of phosphatidylinositol (3,4,5)-triphosphate (PIP3) by the four class I PI3K isoenzymes (p110 α, β, γ, δ) was assessed using the PI3 Kinase Activity/Inhibitor Assay Kit (Millipore, Billerica, MA) according to the manufacturer's instructions. This assay works on the principle that the PH domain of the protein GRP-1 binds PIP3 with high affinity and specificity. This protein binds to the glutathione plate and captures either the PIP3 generated as part of the kinase reaction or the biotinylated-PIP3 tracer included in the kit. The captured biotinylated-PIP3 is detected using streptavidin-HRP conjugate and a colorimetric read out (OD 450).
The class I PI3Ks are heterodimeric enzymes formed by association of a p110 catalytic subunit with a p85 regulatory subunit. There are 4 variants of the p110 catalytic subunit designated p110α, β, δ or γ [22]. […] Briefly, in this assay the PIP3 generated as part of the kinase reaction or the biotinylated-PIP3 tracer included in the kit is captured on a glutathione plate via its interaction with the pleckstrin homology (PH) domain of the glutathione S-transferase (GST)-fusion protein general receptor for phosphoinositides-1 (GRP-1). The captured biotinylated-PIP3 is then detected using a streptavidin-HRP conjugate and a colorimetric read out.

HDAC1 = target: T2, HDAC1 (Homo sapiens, UniProt Q13547); assay: Fluorogenic HDAC activity assay, HDAC1; format: biochemical
T2 construct: purchased BPS Bioscience (San Diego, CA)
T2 sequence (Q13547 whole entry): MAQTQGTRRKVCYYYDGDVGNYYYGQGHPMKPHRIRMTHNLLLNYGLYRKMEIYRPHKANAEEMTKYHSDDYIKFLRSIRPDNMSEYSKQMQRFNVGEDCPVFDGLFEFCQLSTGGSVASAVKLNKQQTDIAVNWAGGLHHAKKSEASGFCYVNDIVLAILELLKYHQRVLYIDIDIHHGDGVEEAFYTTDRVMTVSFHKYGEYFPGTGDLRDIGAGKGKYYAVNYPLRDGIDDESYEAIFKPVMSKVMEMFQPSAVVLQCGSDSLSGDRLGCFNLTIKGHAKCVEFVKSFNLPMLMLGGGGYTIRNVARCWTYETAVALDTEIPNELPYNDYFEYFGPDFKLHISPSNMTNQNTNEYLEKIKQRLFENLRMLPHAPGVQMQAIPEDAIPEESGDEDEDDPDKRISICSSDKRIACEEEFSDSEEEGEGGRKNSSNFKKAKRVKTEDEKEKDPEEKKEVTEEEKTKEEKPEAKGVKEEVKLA
Experimental: The lysine deacetylase activity of HDACs 1, 2, 3, and 8 was assessed using the Fluorogenic HDAC Assay (BPS Bioscience, San Diego, CA) according to the manufacturer's instructions. The HDAC3 used in this assay was complexed with human nuclear receptor co-repressor 2 (NCOR2; amino acids 395–489), which is an activating co-factor of this HDAC isoform. All assays were carried out under steady-state conditions and the assay read-out was optimized for linearity both as a function of time and enzyme concentration. The formation of the fluorescent product was measured using a SpectraMax M2 Plate Reader (Molecular Devices, CA). The excitation and emission wavelengths were 360 nm and 450 nm, respectively. […]

HDAC3 = target: T3, HDAC3 (Homo sapiens, UniProt O15379); assay: Fluorogenic HDAC activity assay, HDAC3 complexed with NCOR2; format: biochemical
T3 construct: purchased BPS Bioscience (San Diego, CA)
T3 sequence (O15379 whole entry): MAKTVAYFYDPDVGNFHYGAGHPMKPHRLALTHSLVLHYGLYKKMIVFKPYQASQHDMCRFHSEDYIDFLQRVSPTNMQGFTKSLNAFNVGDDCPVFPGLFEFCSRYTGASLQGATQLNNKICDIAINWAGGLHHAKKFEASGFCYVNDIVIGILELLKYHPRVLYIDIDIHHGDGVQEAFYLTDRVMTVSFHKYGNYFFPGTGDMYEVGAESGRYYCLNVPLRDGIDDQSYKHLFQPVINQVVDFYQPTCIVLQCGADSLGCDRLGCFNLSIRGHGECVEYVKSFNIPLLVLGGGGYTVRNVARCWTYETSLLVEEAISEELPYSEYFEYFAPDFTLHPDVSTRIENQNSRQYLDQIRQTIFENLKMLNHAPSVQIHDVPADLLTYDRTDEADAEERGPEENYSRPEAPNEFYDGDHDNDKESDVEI
T3 sequence (Q9Y618 395-489 partner limits assumed): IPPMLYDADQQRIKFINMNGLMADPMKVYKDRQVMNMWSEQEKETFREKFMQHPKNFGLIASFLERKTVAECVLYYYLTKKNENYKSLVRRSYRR
Experimental: The lysine deacetylase activity of HDACs 1, 2, 3, and 8 was assessed using the Fluorogenic HDAC Assay (BPS Bioscience, San Diego, CA) according to the manufacturer's instructions. […] All assays were carried out under steady-state conditions and the assay read-out was optimized for linearity both as a function of time and enzyme concentration. The formation of the fluorescent product was measured using a SpectraMax M2 Plate Reader (Molecular Devices, CA). The excitation and emission wavelengths were 360 nm and 450 nm, respectively.

## COc1cc2c(cc1OC)-c1c(OC)c(OC)cc3ccnc(c13)C2=O [Compound 57704, 1,2,9,10-tetramethoxy-7H-dibenzo[de,g]quinolin-7-one]
[1]; Human immunodeficiency virus 1, read-out: EC50, activation of early HIV-1 gene transcript expression
  EC50: 8.2 µM
[1]; Human immunodeficiency virus 1, read-out: EC50, activation of late HIV-1 gene transcript expression
  EC50: 4.9 µM
[1]; U1, 5 µM 57704 + 1 µM prostratin
  Latent HIV-1 reactivation activity in combination with prostratin: increased in an additive manner
[1]; U1, 5 µM 57704 + 2.5 µM DSF
  Latent HIV-1 reactivation activity in combination with DSF: increased in an additive manner
[1]; U1, 5 µM 57704 + 5 µM SAHA
  Latent HIV-1 reactivation activity in combination with SAHA: increased in an additive manner
[1]; U1, 5 µM 57704 + 20 µM BIX-01294
  Latent HIV-1 reactivation activity in combination with BIX-01294: increased in an additive manner
[2]
  EC50: 5 to 9 µM
Akt phosphorylation
  Akt phosphorylation (Western blot): increased Akt phosphorylation
PI3K p110β RNA
  Decrease of PI3K p110β RNA levels: ~2 fold
PI3K p110γ RNA
  Effect on PI3K p110γ RNA transcript levels: no effect
PI3K p110α
  Agonist activity: effect on inhibition of PI3K p110α by wortmannin: abrogated the ability of wortmannin to inhibit PI3K p110α
HDAC1
  IC50: > 50 µM
HDAC3
  IC50: > 50 µM
